Measured values reported in US6746835B2, “Thermally processed image recording material” (Fuji Photo Film Co., Ltd., priority 2001, dated 2004).

Assay: pKa of the conjugate acid of the enolate anion (acid/base titration or UV absorption method)
Assay type: physicochemical
Conditions: mixed solvent of THF/water=3/2
Text: The conjugate acid of the enolate anion in the formula (1) has a pKa value of 3.0-6.0. If the pKa value is less than 3.0, ultrahigh contrast images cannot be obtained. On the other hand, if it exceeds 6.0, stability before light exposure and development is degraded. The pKa value defined herein is a value obtained by the acid/base titration method or the UV absorption method in a mixed solvent of THF/water=3/2.

Row | pKa | Compound
1 | 3.8 | O=C1/C(=C/O)N=C(c2cc(C(F)(F)F)cc(C(F)(F)F)c2)N1c1ccc(Cl)cc1 [Compound A-6]
2 | 3.1 | CCCCCCCCCCCCNc1ccc(N2C(=O)/C(=C\O)N=C2C(F)(F)F)cc1 [Compound A-18]
3 | ≤ 2.9 | CCCCCCCCCCCCc1cc(CCCCCCCCCCCC)cc(N2N=C/C(=C/O)C2=O)c1 [Compound R-1]
4 | 6.3 | CCCCCCCCCCCCCCCc1cccc(CCCN2C(=O)/C(=C\O)c3ccccc32)c1 [Compound R-2]
